Where two headings read alike, the source gives them in different places.
Columns and labels:
[1] = test system: Carbapenem-resistant Acinetobacter baumannii (CRAB, Acinetobacter baumannii); assay: Test Example 2: antibacterial activity test (MIC); type: cell-based; conditions: ID-CAMHB, read-out: ID-CAMHB, MIC
Experimental: (§1) 1. The test compounds were dissolved in sterile normal saline, vortexed for uniformly mixing, and diluted in a 2-fold dilution with the sterile normal saline (11 concentration points in total). The test concentration range was 32-0.031 μg/mL, and two duplicate wells were set for each concentration. Additional wells without drug dosing were set as growth controls. 2. 4 μL of the diluent was added to 196 μL of the bacterial suspension in a 96-well plate (the bacterial count in the bacterial suspension was 2-8×10^5 colony forming units/mL). 3.
(§2) The minimum inhibitory concentration (MIC) assay was performed with reference to the Clinical and Laboratory Standards Institute (CLSI) guidelines.

[2] = test system: Carbapenem-resistant Enterobacteriaceae (CRE, Klebsiella pneumoniae); assay: Test Example 2: antibacterial activity test (MIC); type: cell-based; conditions: ID-CAMHB, read-out: ID-CAMHB, MIC
Experimental: as §1, §2

[3] = test system: Carbapenem-resistant Pseudomonas aeruginosa (CRPA, Pseudomonas aeruginosa); assay: Test Example 2: antibacterial activity test (MIC); type: cell-based; conditions: ID-CAMHB, read-out: ID-CAMHB, MIC
Experimental: as §1, §2

[4] = test system: Control Strain Pseudomonas aeruginosa ATCC 27853; assay: Test Example 2: antibacterial activity test (MIC); type: cell-based; conditions: ATCC27853, ID-CAMHB, ATCC 27853, read-out: ID-CAMHB, MIC
Experimental: as §1, §2

[5] = test system: Control strain Escherichia coli ATCC 25922; assay: Test Example 2: antibacterial activity test (MIC); type: cell-based; conditions: ATCC25922, ID-CAMHB, ATCC 25922, read-out: ID-CAMHB, MIC
Experimental: as §1, §2

[6] = Test Example 3: pharmacokinetic study in cynomolgus monkeys; type: in vivo; conditions: cynomolgus monkey, plasma, 10 mg/kg single intravenous infusion, individual animals
Experimental: An appropriate amount of a test compound was weighed precisely and added to a container, and 0.9% sodium chloride injection and 0.2 M NaOH solution were added thereto in an ice bath until the test compound was completely dissolved, so that a sample solution at a concentration of 2 mg/mL was obtained followed by storage at 2-8° C. for later use.
Species and strain: cynomolgus monkey Animal grade: general grade Animal source: Guangxi Xiongsen Primate Experimental Animal Breeding Development Co., Ltd. Number of the using of laboratory animal: SYXK (Su) 2019-0012
6 cynomolgus monkeys (half male and half female) were selected and randomly divided into 3 groups with 1 animal/sex in each group. The cynomolgus monkeys were administered with the test sample at a dose of 10 mg/kg by the single intravenous infusion. Blood samples were collected from each group of animals at the following time points: before administration, and 5 min, 15 min, 0.5 h, 1 h, 2 h, 4 h, 6 h, and 8 h after administration. In the test, the concentration of each test compound in the plasma of the cynomolgus monkey was detected by the LC-MS/MS method, and the lower limit of quantification of the analysis methods for the plasma samples were all 1 μg/mL. The plasma concentration data were analyzed by the non-compartmental analysis (NCA) of the analysis software for pharmacokinetic data, WinNonlin, pharmacokinetic parameters were calculated, and pharmacokinetic characteristics of the test compounds in cynomolgus monkeys after administration were investigated, with the results shown in the following table

[7] = both sexes, cynomolgus, iv, 10 mg/kg

MIC ([1]; FDA-CDC AR-BANK #0036 (strB, OXA-65, OXA-24, strA, sul2)): 0.125 µg/mL | MIC ([1]; FDA-CDC AR-BANK #0052 (OXA-58, OXA-100, sul2)): 0.0625 µg/mL | MIC ([1]; FDA-CDC AR-BANK #0063 (OXA-23, OXA-65, OXA-24, sul2)): > 32 µg/mL | MIC ([1]; FDA-CDC AR-BANK #0070 (OXA-58, OXA-100, sul2)): 0.125 µg/mL | MIC ([1]; FDA-CDC AR-BANK #0101 (strB, OXA-65, OXA-24, strA, sul2)): 0.5 µg/mL | MIC ([2]; FDA-CDC AR-BANK #0361 (TEM-1; SHV-12; KPC-2)): 0.25 µg/mL | MIC ([2]; FDA-CDC AR-BANK #0363 (TEM-1; SHV-12; KPC-2)): 0.125 µg/mL | MIC ([2]; FDA-CDC AR-BANK #0438 (aph(3′)-Ia, dfrA12, KPC-3, OmpK35, oqxA, oqxB, SHV-11)): 0.5 µg/mL | MIC ([2]; FDA-CDC AR-BANK #0453 (KPC-3, OmpK35, oqxA, oqxB, SHV-11, TEM-1B)): 2 µg/mL | MIC ([3]; FDA-CDC AR-BANK #0439 (aac(6′)-Il, aadA1b, BCR1, IMP-18, OXA-50)): 0.25 µg/mL | MIC ([3]; FDA-CDC AR-BANK #0441 (KPC-2)): 1 µg/mL | MIC ([3]; FDA-CDC AR-BANK #0444 (aac(6′)-Il, dfrB5, OXA-4, tet(G), VIM-2)): 16 µg/mL | MIC ([3]; FDA-CDC AR-BANK #0457 (aadA6, VIM-2)): 0.0625 µg/mL | MIC [4]: 0.0625 µg/mL | MIC [5]: 0.0625 µg/mL | AUC(0-inf) [6, 7]: 32900 ng·h/mL | AUC(0-t) [6, 7]: 29300 ng·h/mL | clearance [6, 7]: 5.06 mL/min/kg | half-life [6, 7]: 37.2 min | Cmax ([6]; both sexes, cynomolgus, iv, 10 mg/kg, read-out: Cmax): 35500 ng/mL | MRT ([6]; both sexes, cynomolgus, iv, 10 mg/kg, read-out: MRT): 38.4 min | Vd ([6]; both sexes, cynomolgus, iv, 10 mg/kg, read-out: Vd): 0.27 L/kg | Tmax ([6]; both sexes): 4.8 min | AUC last ([6]; 10 mg/kg): 23440 ng·h/mL | AUCinf ([6]; 10 mg/kg): 25640 ng·h/mL | CL ([6]; 10 mg/kg): 6.5002 mL/min/kg | Cmax ([6]; 10 mg/kg): 30640 ng/mL | MRT ([6]; 10 mg/kg): 37.2 min | Vd ([6]; 10 mg/kg): 0.31334 L/kg | t1/2 ([6]; 10 mg/kg): 33.6 min
SMILES: CC(C)(O/N=C(\C(=O)N[C@@H]1C(=O)N2C(C(=O)O)=C(C[N+]3(CCN(CCCNC(=O)c4ccc(O)c(O)c4Cl)C(=O)c4ccc(O)c(O)c4Cl)CCCC3)CS[C@H]12)c1csc(N)n1)C(=O)O [Compound 10]

— patent publication US20230121689A1, “CEPHALOSPORIN ANTIBACTERIAL COMPOUND AND PHARMACEUTICAL APPLICATION THEREOF” (priority 2020, published 2023)
